The values below come from publication PMC3994062, “Inhibition of Paracoccidioides lutzii Pb01 Isocitrate Lyase by the Natural Compound Argentilactone and Its Semi-Synthetic Derivatives” (PLoS ONE, 2014).

The term IC50 denotes the concentration at which inhibition is half-maximal.

In data set [1] the test system is P. lutzii Pb01 yeast cells. Put plainly: Inhibition and sensitivity assay, P. lutzii Pb01 yeast cells growth (broth macro dilution / spot on MMcM agar). The data set is classed as cell-based, Paracoccidioides lutzii. The settings on record: for MIC: read-out: minimal inhibitory concentration; for effect on P. lutzii Pb01 yeast cells growth: glucose or acetate as carbon source, 9 to 72 µg/mL. Here is the method: Inhibition assays were performed by broth macro dilution method according to NCCLS M27-A2 guidelines with modifications. For the inhibition assays, yeast cells in their exponential growth phase were kept on solid MMcM for seven days at 36°C and inoculated in liquid MMcM medium. Sterile stock solution of the argentilactone, reduced argentilactone, epoxy argentilactone and diol argentilactone were freshly prepared in water and dimethyl sulfoxide (DMSO). Serial dilutions from stock solutions were prepared with sterile MMcM medium as the diluent, to yield final compound concentrations ranging from 9 to 72 µg/mL. Drug-free controls were included. Inocula concentrations were determined spectrophotometrically at 520 nm. The mixture was vortexed to disperse the aggregated cells. P. lutzii Pb01 was grown at 36°C, 200 rpm shaking for 10 days. For the sensitivity assay, 7-day-old P. lutzii Pb01 yeast cells were grown in liquid MMcM overnight at 36°C. Samples containing 10^5, 10^4, and 10^3 cells were spotted onto MMcM agar medium supplemented with argentilactone, reduced argentilactone, epoxy argentilactone, or diol argentilactone at concentrations of 9 µg/mL, 18 µg/mL, 36 µg/mL, or 72 µg/mL. […] The plates were incubated for 6 days at 36°C before being photographed.

Data set [2] relates to P. lutzii Pb01 differentiation from mycelium to yeast. Put plainly: Transition from mycelium to yeast (dimorphism). The settings on record: glucose or acetate; 10 days at 36°C. The class given is cell-based, Paracoccidioides lutzii. Here is the method:
The differentiation from mycelium to yeast was performed in Mc Veigh and Morton (MMcM) liquid minimal medium containing glucose (0.11 M) or acetate (0.28 M) as the carbon source. The cultivation temperature was changed from 23°C to 36°C to allow the mycelium to yeast transition. The cells were previously grown in liquid medium for 18 h before changing the incubation temperature, which was maintained for 10 days. The appearance of yeast cells was monitored using a Neubauer chamber.

Data set [3] has as its target PbICLr (Paracoccidioides lutzii, UniProt C1H8F5). As to the kind of experiment: Enzymatic activity of recombinant isocitrate lyase (PbICLr). The data set is classed as biochemical. The note with it: for Specific activity PbICLr: control 2.55±0.02. Here is the method: Recombinant PbICL protein was obtained as described by Cruz. Briefly, Pbicl cDNA was inserted into the pET-32a (+) expression vector (Novagen, Inc,). The resulting plasmid was transformed into E. coli BL21 C43 (DE3) cells, and expression was induced at an A600 of 0.6 by the addition of 1 mm (final concentration) isopropyl thio-β-D-galactoside (IPTG) (Sigma-Aldrich). After induction, the cells were incubated for another 2 h at 36°C with shaking at 200 rpm. The cells were harvested by centrifugation at 10,000×g for 5 min at 4°C and resuspended in 1 × NaCl/Pi buffer. After incubation for 30 min with 100 µg/mL lysozyme, the cells were lysed by extensive sonication. The sample was centrifuged at 4°C and 8,000×g for 15 min, and the supernatant, which contained the soluble protein fraction, was collected. His-tagged ICL was purified using the Ni-NTA Spin Kit (Qiagen), and the tags were subsequently removed by the addition of EKMax™ enterokinase (Invitrogen).
(§1) ICL activity was determined according to Cruz et al.. Reactions were performed in 1 mL assay volume containing 2 mM threo-D,L-isocitrate (effective concentration of threo-D-isocitrate 1 mM), 2 mM MgCl2, 10 mM phenylhydrazine HCl, 2 mM dithiothreitol, and 50 mM Tris HCl buffer (pH 7.0). The product glyoxylate-phenylhydrazone was followed at 324 nm using an extinction coefficient of 16.8 mM^−1.cm^−1. One unit of enzyme activity was defined as the formation of 1 µmol of glyoxylate-phenylhydrazone per minute using threo-D,L-isocitrate as the substrate. The specific activities were given as U.mg^−1 protein.
(§2) The compound concentrations were 10 µM, 20 µM, 30 µM, and 40 µM for recombinant PbICL and 30 µM, 40 µM, 50 µM, 60 µM, 70 µM, 80 µM and 90 µM for native PbICL. 3-nitropropinate (50.7 µM) was used as positive control. To the assays of specific activity of PbICL from mycelium, transition, and yeast, the cells were cultured for 10 days on 23°C and 36°C, and were used 18 µg/mL of argentilactone.

Data set [4] deals with PbICLc (Paracoccidioides lutzii, UniProt C1H8F5). As to the kind of experiment: Enzymatic activity of native PbICL in crude protein extract of yeast cells (PbICLc). The data set is classed as biochemical. The settings on record: for inhibition of native PbICL activity: crude extract of yeast cells; for Specific activity PbICLc Acetate: crude extract of yeast cells grown on acetate, control 0.080±0.004; for Specific activity PbICLc Acetate / Specific activity PbICLc Glucose / IC50 / IC50 PbICLc Acetate / IC50 PbICLc Glucose: N.I. = No inhibition found; for Specific activity PbICLc Glucose: crude extract of yeast cells grown on glucose, control 0.010±0.002; for IC50 / IC50 PbICLc Acetate / IC50 PbICLc Glucose: crude extract. Here is the method:
P. lutzii Pb01 yeast cells grown for 24 h in liquid minimal MMcM medium containing glucose or acetate as the carbon source were centrifuged for 5 min at 2.500×g. The proteins were extracted as previously described. The cells were washed with sterilized water and frozen in liquid nitrogen. The material was ground to a fine powder; resuspended in 500 µL of 50 mM potassium phosphate buffer (pH 7.0) supplemented with 1 mM dithiothreitol (DTT) and vigorously mixed with glass beads for 20 min at 4°C. The cell debris was removed by centrifugation for 15 min at 4°C and 5,000×g, and the supernatant was centrifuged for 15 min at 4°C and 12,000×g. The cell-free extract was used for the ICL activity assays or stored at −20°C for further analyses. Quantification of the protein content was performed according to Bradford.
as §1, §2

Data set [5] concerns P. lutzii Pb01 yeast cells. As to the kind of experiment: Viability assay of P. lutzii Pb01 yeast cells (Neubauer chamber). The note with it: 18 µg/mL, after 6 h of incubation. The class given is cell-based, Paracoccidioides lutzii. Here is the method:
P. lutzii Pb01 yeast cells were sub-cultured every 7 days in solid Fava-Netto’s medium at 36°C. For viability experiments, yeast cells were kept in liquid McVeigh Morton (MMcM) chemically defined medium for 6 h at 36°C and viability of the cells determined by counting viable cells in a Neubauer chamber. All experiments were performed in triplicate.

For data set [6], the system named is MRC5 cells. Put plainly: Toxicity to MRC5 cells. The class given is cell-based. The note with it: 18 µg/mL; data not shown.
Data set [7] concerns PbICL. Put plainly: PbICL activity from phases of P. lutzii Pb01 cultured with argentilactone. The class given is biochemical, Paracoccidioides lutzii. The settings on record: for PbICL specific activity: treated with 18 µg/mL; for inhibition of PbICL: 18 µg/mL, over the phases. Here is the method: as §1, §2
Data set [8] deals with dermatophytes. On the set-up: method as in doi:10.1590/S0103-50532004000500023. The settings on record: cited from earlier work.
Where [9] appears, read: recombinant enzyme, N.I. = No inhibition found.
The mark [10] stands for this setting: read-out: IC50 PbICLc Acetate, acetate.
Where [11] appears, read: read-out: IC50 PbICLc Glucose, glucose.

In brackets after ≈: the same amount, converted by molar mass. Where two headings read alike, the source gives them in different places.

Chain of PbICLc (C1H8F5 entry or part of it): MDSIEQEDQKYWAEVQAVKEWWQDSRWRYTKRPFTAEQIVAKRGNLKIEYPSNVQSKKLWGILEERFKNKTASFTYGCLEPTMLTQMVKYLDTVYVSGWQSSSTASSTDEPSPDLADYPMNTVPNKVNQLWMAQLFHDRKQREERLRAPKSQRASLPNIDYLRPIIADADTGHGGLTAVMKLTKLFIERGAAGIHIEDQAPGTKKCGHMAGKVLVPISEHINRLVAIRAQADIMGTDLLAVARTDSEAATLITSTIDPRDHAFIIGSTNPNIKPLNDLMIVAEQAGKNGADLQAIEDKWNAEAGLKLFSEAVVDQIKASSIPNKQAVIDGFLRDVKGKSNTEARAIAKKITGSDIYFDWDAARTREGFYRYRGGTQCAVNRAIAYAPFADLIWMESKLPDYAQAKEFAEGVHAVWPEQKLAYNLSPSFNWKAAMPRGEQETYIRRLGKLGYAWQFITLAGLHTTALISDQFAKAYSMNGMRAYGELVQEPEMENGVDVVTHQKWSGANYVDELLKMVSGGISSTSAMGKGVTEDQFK
Chain of PbICLr (C1H8F5 entry or part of it): as above

On to `CCCCCCCC1CC=CC(=O)O1` (stereo in doubt) [Reduced argentilactone, 2H-Pyran-2-one, 6-heptyl-5,6-dihydro-, (6R)], for which the MIC in data set [1] (acetate as carbon source) worked out at 9 µg/mL (≈ 45.9 µM); in data set [1] (glucose as carbon source), 18 µg/mL (≈ 91.7 µM). In addition, in data set [1], the “effect on P. lutzii Pb01 yeast cells growth” value was “dose-dependent inhibition”. Further, the “inhibition of the dimorphism mycelium to yeast” value (shortened to “inhibition … to yeast”) in data set [2] was “the effect was reduced”. Also, the IC50 in data set [3] turned out to be 30.2 ± 0.04 µM; in data set [4] (setting [10]), 60 ± 0.02 µM; in data set [4] (setting [11]), 85 ± 0.01 µM. Also, the “Specific activity PbICLr” value in data set [3] (setting [9]) is 0.93±0.01 U/mg. For the same compound, in data set [4], the “inhibition of native PbICL activity” value is given as “inhibited”. In addition, the “Specific activity PbICLc Acetate” value in data set [4] is given as 0.067±0.004 U/mg. The “Specific activity PbICLc Glucose” value in data set [4] turned out to be 0.009±0.003 U/mg.

Take `O=C(O)CC[N+](=O)[O-]` [3-Nitropropionate, reference compound]: in data set [3] (setting [9]), the “Specific activity PbICLr” value worked out at 0.81±0.01 U/mg. Moreover, the IC50 came to 25.7 ± 0.01 µM in data set [3] (recombinant enzyme, N.I. = No inhibition found, read-out: IC50 PbICLr); 45.4 ± 0.01 µM in data set [4] (acetate, read-out: IC50 PbICLc Acetate); 76 ± 0.01 µM in data set [4] (glucose, read-out: IC50 PbICLc Glucose). For the same compound, in data set [4], the “Specific activity PbICLc Acetate” value was found to be 0.036±0.002 U/mg. In addition, the “Specific activity PbICLc Glucose” value in data set [4] worked out at 0.008±0.001 U/mg.

With `CCCCC/C=C\[C@H]1CC=CC(=O)O1` [Argentilactone, 2H-Pyran-2-one, 6-(1-heptenyl)-5,6-dihydro-, [R-(Z)]], the MIC turned out to be 9 µg/mL (≈ 46.3 µM) in data set [1] (acetate as carbon source) and 18 µg/mL (≈ 92.7 µM) in data set [1] (glucose as carbon source). In addition, the “effect on P. lutzii Pb01 yeast cells growth” value in data set [1] is given as “dose-dependent inhibition”. Moreover, the decrease of viability result in data set [5] is recorded as “approximately 15%”. The “toxicity to MRC5 cells” value in data set [6] is given as “not toxic”. The “inhibition … to yeast” value in data set [2] is on record as “dose-dependent inhibition”. The PbICL specific activity was 0.055±0.003 U in data set [7] (Mycelium to Yeast, Acetate); 0.055±0.001 U in data set [7] (Mycelium to Yeast, Glucose); 0.055±0.005 U in data set [7] (Mycelium, Acetate); “T 0.045±0.001 U” in data set [7] (Mycelium, Glucose); 0.120±0.003 U in data set [7] (Yeast, Acetate); 0.085±0.001 U in data set [7] (Yeast, Glucose). Also, the figures for the “inhibition of PbICL” value in data set [7] (acetate) and in data set [7] (glucose) were roughly 45% and roughly 30%, respectively. The IC50 is 28.8 ± 0.01 µM in data set [3], 50 ± 0.03 µM in data set [4] (setting [10]) and 80 ± 0.02 µM in data set [4] (setting [11]). Further, the “Specific activity PbICLr” value in data set [3] (setting [9]) was 0.86±0.01 U/mg. In data set [4], the “inhibition of native PbICL activity” value is listed as “inhibited”. For the same compound, the “Specific activity PbICLc Acetate” value in data set [4] was 0.040±0.001 U/mg. Further, in data set [8], the minimal inhibitory concentration is reported as 31 µg/mL (≈ 160 µM).

On to `CCCCC[C@@H](O)[C@H](O)[C@H]1CC=CC(=O)O1` [Diol argentilactone, 2H-Pyran-2-one, 6-(1,2-dihydroxyheptyl)-5,6-dihydro-, [6R-(1S, 2R)]], for which the “effect on P. lutzii Pb01 yeast cells growth” value in data set [1] was “very small effect”. Further, the “inhibition … to yeast” value in data set [2] is given as “did not interfere”. Further, in data set [3] (recombinant enzyme), the “effect against PbICLr” value is given as “no effect”. In data set [3] (setting [9]), the “IC50 PbICLr” value is listed as “N.I. ^**” and the “Specific activity PbICLr” value is listed as “N.I. ^**”. In addition, in data set [4], the “inhibition of native PbICL activity” value is “No inhibition”, the “Specific activity PbICLc Acetate” value was “N.I. ^**” and the “Specific activity PbICLc Glucose” value was “N.I. ^**”. Further, the “IC50 PbICLc Acetate” value in data set [4] (acetate) is “N.I. ^**”. Moreover, the “IC50 PbICLc Glucose” value in data set [4] (glucose) was “N.I. ^**”.

For the compound `CCCCCC1OC1C1CC=CC(=O)O1` [Epoxi argentilactone, 2H-Pyran-2-one, 5,6-dihydro-6-[(2S, 3S)-3-pentyl-2-oxiranyl] -, (6R)], the “effect on P. lutzii Pb01 yeast cells growth” value in data set [1] was “very small effect”. The “inhibition … to yeast” value in data set [2] is reported as “did not interfere”. Besides, in data set [3] (recombinant enzyme), the “effect against PbICLr” value is given as “no effect”. In data set [3] (setting [9]), the “IC50 PbICLr” value is reported as “N.I. ^**” and the “Specific activity PbICLr” value was “N.I. ^**”. In addition, in data set [4], the “inhibition of native PbICL activity” value is “No inhibition”, the “Specific activity PbICLc Acetate” value is listed as “N.I. ^**” and the “Specific activity PbICLc Glucose” value was “N.I. ^**”. Besides, the “IC50 PbICLc Acetate” value in data set [4] (acetate) was “N.I. ^**”. For the same compound, the “IC50 PbICLc Glucose” value in data set [4] (glucose) is “N.I. ^**”.
